From ChEMBL document CHEMBL4602667, “An NMR-Based Chemometric Strategy to Identify Leishmania donovani Nucleoside Hydrolase Inhibitors from the Brazilian Tree Ormosia arborea” (J Nat Prod, 2020)
Calls of active or inactive are those of the source. The rule behind the calls is not given here.

What was measured:
Leishmania donovani = assay: Reversible inhibition of recombinant Leishmania donovani C-terminal His6-tagged Nucleoside hydrolase expressed in Escherichia coli BL21(DE3) cells assessed recovery of enzyme activity at 10 times of IC50 preincubated for 20 mins followed by inosine addition by jump dilution experiment based assay
[1] = Inhibition of recombinant Leishmania donovani C-terminal His6-tagged Nucleoside hydrolase expressed in Escherichia coli BL21(DE3) cells assessed as reduction in uric acid formation by coupled assay
[2] = Noncompetitive inhibition of recombinant Leishmania donovani C-terminal His6-tagged Nucleoside hydrolase expressed in Escherichia coli BL21(DE3) cells assessed as decrease in Vmax using 0.01 to 3 mM of inosine as substrate preincubated for 20 mins followed by inosine addition

Row | Compound | inhibition (Leishmania donovani) | IC50 [1] | Ki [2]
1 | O=C(/C=C/c1ccc(O)cc1)O[C@@H]1Cc2c(O)cc3c(c2O[C@@H]1c1ccc(O)c(O)c1)[C@H]1c2c(O)cc(O)cc2O[C@@](c2ccc(O)c(O)c2)(O3)[C@@H]1O | Active | 25.6 µM | 21.2 µM
2 | O=C(/C=C/c1ccc(O)cc1)O[C@@H]1Cc2c(O)cc3c(c2O[C@@H]1c1ccc(O)c(O)c1)[C@H]1c2c(O)cc(O)cc2O[C@@](c2cc(O)c(O)c(O)c2)(O3)[C@@H]1O | Active | 28.2 µM | 27.9 µM
